Reference: US4650760A, “Modified alkaline phosphatase” (Research Corporation, priority 1985, dated 1987)

What was measured:
[1] = molecular target: alkaline phosphatase isolated from leukocytes (Homo sapiens, UniProt P05186); settings: 0.02M EDTA; cited from earlier work
[2] = molecular target: E. coli alkaline phosphatase, trypsin-modified (tm-AP) (Escherichia coli, UniProt P00634); settings: 2.6×10^-6 M enzyme, 0.5 M NaCl, 0.025 M Tris, pH 7.5
Method: (§1) Enzyme was incubated with EDTA; conditions- 2.6×10^-6 M enzyme, -0.015 M EDTA, 0.5 M NaCl, 5×10^-4 M Mg(II), 5×10^-5 M Zn(II), 5×10^-4 M spermidine, 0.025 M Tris, pH 7.5. Aliquots were withdrawn at the indicated time points and enzymatic activity in the standard phosphohydrolase assay (Appleburg, M. L. and J. E. Coleman J. Biol. Chem. 244: 308 (1969)) was determined. Data are shown as the per cent of the initial activity remaining at the times indicated. […] Enzyme was harvested and activity determined.
(§2) Following inactivation, samples of th enzymes were dialyzed against buffer solutions containing Zn(II) and Mg(II) ions (arrow in FIG. 14).

[3] = molecular target: native bacterial alkaline phosphatase (BAP) (Escherichia coli, UniProt P00634); settings: 2.6×10^-6 M enzyme, 0.5 M NaCl, 0.025 M Tris, pH 7.5
Method: as §1, §2

E. coli alkaline phosphatase, trypsin-modified (tm-AP), sequence (P00634 33-471): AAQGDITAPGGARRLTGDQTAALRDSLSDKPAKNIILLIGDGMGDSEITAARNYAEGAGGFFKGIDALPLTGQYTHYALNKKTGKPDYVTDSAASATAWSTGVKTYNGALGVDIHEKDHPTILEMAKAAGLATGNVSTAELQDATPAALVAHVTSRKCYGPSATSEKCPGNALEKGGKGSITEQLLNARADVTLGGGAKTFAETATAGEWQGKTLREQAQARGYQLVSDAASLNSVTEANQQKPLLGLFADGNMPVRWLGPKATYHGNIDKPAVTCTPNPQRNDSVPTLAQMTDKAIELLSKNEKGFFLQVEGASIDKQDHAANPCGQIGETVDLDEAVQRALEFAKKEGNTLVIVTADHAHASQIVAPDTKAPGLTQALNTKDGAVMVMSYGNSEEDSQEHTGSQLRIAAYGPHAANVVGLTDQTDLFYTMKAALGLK
alkaline phosphatase isolated from leukocytes, sequence (P05186 18-502 limits assumed): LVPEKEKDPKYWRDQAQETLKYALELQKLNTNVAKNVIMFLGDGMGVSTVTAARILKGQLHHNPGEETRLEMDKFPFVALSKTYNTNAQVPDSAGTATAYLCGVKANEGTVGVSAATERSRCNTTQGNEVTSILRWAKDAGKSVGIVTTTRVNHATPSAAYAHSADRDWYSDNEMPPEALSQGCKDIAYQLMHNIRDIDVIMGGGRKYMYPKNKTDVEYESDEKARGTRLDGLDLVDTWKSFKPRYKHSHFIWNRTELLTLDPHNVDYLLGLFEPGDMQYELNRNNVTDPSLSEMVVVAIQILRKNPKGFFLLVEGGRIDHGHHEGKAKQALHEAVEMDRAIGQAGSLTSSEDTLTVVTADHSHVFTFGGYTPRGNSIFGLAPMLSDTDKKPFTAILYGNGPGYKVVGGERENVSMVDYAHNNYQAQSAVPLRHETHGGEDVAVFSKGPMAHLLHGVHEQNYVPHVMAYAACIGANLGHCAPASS
native bacterial alkaline phosphatase (BAP), sequence (P00634 22-471): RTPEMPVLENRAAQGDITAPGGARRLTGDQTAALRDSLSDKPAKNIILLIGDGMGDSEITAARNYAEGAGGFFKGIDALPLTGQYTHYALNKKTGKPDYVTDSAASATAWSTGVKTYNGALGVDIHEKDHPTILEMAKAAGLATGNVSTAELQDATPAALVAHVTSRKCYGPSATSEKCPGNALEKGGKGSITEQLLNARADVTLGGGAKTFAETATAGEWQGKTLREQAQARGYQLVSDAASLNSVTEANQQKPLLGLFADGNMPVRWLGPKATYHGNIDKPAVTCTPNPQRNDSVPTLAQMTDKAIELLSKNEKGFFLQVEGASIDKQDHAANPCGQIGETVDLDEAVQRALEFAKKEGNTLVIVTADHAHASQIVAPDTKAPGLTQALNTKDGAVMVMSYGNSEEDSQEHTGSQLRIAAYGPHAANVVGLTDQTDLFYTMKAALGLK

O=C(O)CN(CCN(CC(=O)O)CC(=O)O)CC(=O)O [EDTA, ethylene diamine tetraacetic acid]
inhibition after incubation with EDTA [1]: 50%
time until activity is reduced to zero on exposure to EDTA [2]: 1.5 h
time required for inactivation on exposure to EDTA [3]: 3.5 h
